How the values were obtained:
[1] = Cytotoxicity against human HCT116 cells assessed as decrease in cell proliferation after 72 hrs by MTT assay; type: functional, cell-based; conditions: HCT-116, 72 h
[2] = Cytotoxicity against human JeKo1 cells assessed as decrease in cell proliferation after 72 hrs by MTT assay; type: functional, cell-based; conditions: JeKo-1, 72 h

| Structure (SMILES) | IC50 [1] [µM] | IC50 [2] [µM] |
| --- | --- | --- |
| CCOC(=O)[C@]1(C)CCC[C@@]2(C)[C@@H]3CC[C@@]4(C)C[C@]3(CC[C@@H]21)[C@H](Cn1cc(-c2ccccc2)nn1)[C@H]4O | 8.57 | 18.8 |
| CCOC(=O)[C@]1(C)CCC[C@@]2(C)[C@@H]3CC[C@@]4(C)C[C@]3(CC[C@@H]21)[C@H](Cn1cc(COc2cccc(C=O)c2)nn1)[C@H]4O | 4.64 | 15.6 |
| CCOC(=O)[C@]1(C)CCC[C@@]2(C)[C@@H]3CC[C@@]4(C)C[C@]3(CC[C@@H]21)C[C@@H]4n1cc(COc2ccc(C=O)cc2OC)nn1 | 7.18 | 10.9 |
| CCOC(=O)[C@]1(C)CCC[C@@]2(C)[C@@H]3CC[C@@]4(C)C[C@]3(CC[C@@H]21)C[C@@H]4n1cc(COc2ccc(C(=O)O)cc2)nn1 | 11.8 | 54.4 |
| CCOC(=O)[C@]1(C)CCC[C@@]2(C)[C@@H]3CC[C@@]4(C)C[C@]3(CC[C@@H]21)[C@H](Cn1cc(COc2ccc(C(C)=O)cc2)nn1)[C@H]4O | 8.15 | 19.6 |
| CCOC(=O)[C@]1(C)CCC[C@@]2(C)[C@@H]3CC[C@@]4(C)C[C@]3(CC[C@@H]21)C[C@@H]4n1cc(-c2ccccc2)nn1 | 48.4 | 95.9 |
| CCOC(=O)[C@]1(C)CCC[C@@]2(C)[C@@H]3CC[C@@]4(C)C[C@]3(CC[C@@H]21)[C@H](Cn1cc(COc2ccccc2C=O)nn1)[C@H]4O | 2.99 | 12.7 |
| CCOC(=O)[C@]1(C)CCC[C@@]2(C)[C@@H]3CC[C@@]4(C)C[C@]3(CC[C@@H]21)[C@H](Cn1cc(COc2ccc(C=O)cc2)nn1)[C@H]4O | 6.62 | 16.4 |
| CCOC(=O)[C@]1(C)CCC[C@@]2(C)[C@@H]3CC[C@@]4(C)C[C@]3(CC[C@@H]21)C[C@@H]4n1cc(COc2cccc(C=O)c2)nn1 | 6.5 | 9.5 |
| CCOC(=O)[C@]1(C)CCC[C@@]2(C)[C@@H]3CC[C@@]4(C)C[C@]3(CC[C@@H]21)C[C@@H]4n1cc(COc2ccc(C=O)cc2)nn1 | 8.2 | 11.7 |
| CCOC(=O)[C@]1(C)CCC[C@@]2(C)[C@@H]3CC[C@@]4(C)C[C@]3(CC[C@@H]21)C[C@@H]4n1cc(COc2ccc(C(C)=O)cc2)nn1 | 9.62 | 13.9 |
| CCOC(=O)[C@]1(C)CCC[C@@]2(C)[C@@H]3CC[C@@]4(C)C[C@]3(CC[C@@H]21)C[C@H]4OS(=O)(=O)c1ccc(C)cc1 | 51.4 | 9.75 |
| CCOC(=O)[C@]1(C)CCC[C@@]2(C)[C@@H]3CC[C@@]4(C)C[C@]3(CC[C@@H]21)[C@H](CN=[N+]=[N-])[C@H]4O | 14.8 | 31.2 |
| CC(=O)O[C@@H]1O[C@H](n2cc(COC(=O)[C@]3(C)CCC[C@@]4(C)[C@H]5CC[C@@]6(C)C[C@]5(CC[C@@H]43)CC6=O)nn2)[C@@H](OC(C)=O)[C@@H](OC(C)=O)[C@H]1OC(C)=O | 19.3 | 26.3 |
| CCOC(=O)[C@]1(C)CCC[C@@]2(C)[C@@H]3CC[C@@]4(C)C[C@]3(CC[C@@H]21)C[C@@H]4n1cc(COc2ccccc2C=O)nn1 | 3.8 | 12.2 |
| C#CCOC(=O)[C@]1(C)CCC[C@@]2(C)[C@@H]3CC[C@@]4(C)C[C@]3(CC[C@@H]21)CC4=O | 27.1 | 24.7 |
| CCOC(=O)[C@]1(C)CCC[C@@]2(C)[C@@H]3CC[C@@]4(C)C[C@]3(CC[C@@H]21)C[C@@H]4N=[N+]=[N-] | 46.1 | 55.2 |
| CCOC(=O)[C@]1(C)CCC[C@@]2(C)[C@@H]3CC[C@@]4(C)C[C@]3(CC[C@@H]21)[C@H](Cn1cc(CO)nn1)[C@H]4O | 19.6 | 32.3 |
| CCOC(=O)[C@]1(C)CCC[C@@]2(C)[C@@H]3CC[C@@]4(C)C[C@]3(CC[C@@H]21)[C@H](Cn1cc(COc2ccc(C=O)cc2OC)nn1)[C@H]4O | 4.04 | 7.09 |
| CCOC(=O)[C@]1(C)CCC[C@@]2(C)[C@@H]3CC[C@@]4(C)C[C@]3(CC[C@@H]21)C[C@H]4n1cc(COC(=O)[C@]2(C)CCC[C@@]3(C)[C@@H]4CC[C@@]5(C)C[C@]4(CC[C@@H]32)CC5=O)nn1 | 126 | 15.3 |
| C[C@@]12CC[C@@H]3[C@@](CC[C@H]4[C@@]3(C)CCC[C@@]4(C)C(=O)O)(CC1=O)C2 [ISOSTEVIOL] | > 150 | > 150 |

Reference: ChEMBL document CHEMBL3864158, “Syntheses, cytotoxic activity evaluation and HQSAR study of 1,2,3-triazole-linked isosteviol derivatives as potential anticancer agents” (Bioorg Med Chem Lett, 2016)
